pIC50: −log10 of the molar value.
Columns and labels:
human CB1 receptor = target: T1, human CB1 receptor (Homo sapiens, UniProt P21554); assay: Cannabinoid CB1 receptor binding assay ([3H]-CP-55,940 displacement, SK-N-MC cell membranes); conditions: for inhibition at 0.2 µM: 1.5 h, read-out: Cannabinoid CB1 Receptor Binding, percent inhibition
T1 construct: expressed in transfected cells; host or cells: SK-N-MC cells, stably transfected with pcDNA3 CB-1 (human); semi-purified membrane pellet
Experimental: (§1) Binding Assay for CB1 or CB2 Agonists or Inverse Agonists
(§2) The human CB1 and CB2 receptors were stably expressed in SK-N-MC cells transfected with pcDNA3 CB-1 (human) or pcDNA3 CB-2 (human). The cells were grown in T-180 cell culture flasks under standard cell culture conditions at 37° C. in a 5% CO2 atmosphere. The cells were harvested by trysinization and homogenized in a homogenization buffer (10 mM Tris, 0.2 mM MgCl2, 5 mM KCl, with protease inhibitors aprotinin, leupeptin, pepstatin A and bacitracin) and centrifuged (2000 g). The supernatant was then centrifuged in 2M sucrose (31,300 g) to produce a semi-purified membrane pellet. The pellet was resuspended in homogenization and stored at −80° C.
(§3) On the day of the assay, the pellet was thawed on ice and diluted in assay buffer (50 mM Tris-HCl, 5 mM MgCl2, 2.5 mM EDTA, 0.5 mg/mL fatty acid free bovine serum albumin, pH 7.5). The diluted membrane pellet was added with buffer, either a test compound or vehicle standard and the radioligand […] (0.2 nM) to the wells of a 96-well polypropylene plate. Non-specific binding was measured in wells containing W1N 55,212 (10 uM). The plate was covered and incubated for 90 minutes at 30° C. The contents were then aspirated onto a Packard Unifilter GF/C filter bottom plate prewet with 0.5% polyethyleneimine. The wells of the polypropylene plate were rinsed and aspirated seven times with a 0.9% saline-0.5% Tween 20 solution. The Unifilter plate was dried, scintillation cocktail was added to each well and the counts representing binding were quantitated in a TopCount scintillation counter.
(§4) For compounds tested, an IC50 binding value was obtained from percent inhibition studies in which various test concentrations were used. The binding value was calculated by linear regression.
(§5) For compounds without an IC50 binding value, the percent inhibition (%) was obtained at a test concentration of 0.2 μM.

human CB2 receptor = target: T2, human CB2 receptor (Homo sapiens, UniProt P34972); assay: Cannabinoid CB2 receptor binding assay ([3H]-CP-55,940 displacement, SK-N-MC cell membranes); conditions: 1.5 h; test concentration of 0.2 μM; radioligand CP-55,940 0.2 nM; read-out: Cannabinoid CB2 Receptor Binding, percent inhibition
T2 construct: expressed in transfected cells; host or cells: SK-N-MC cells, stably transfected with pcDNA3 CB-2 (human); semi-purified membrane pellet
Experimental: as §1, §2, §3, §4, §5

T1 sequence (P21554 whole entry): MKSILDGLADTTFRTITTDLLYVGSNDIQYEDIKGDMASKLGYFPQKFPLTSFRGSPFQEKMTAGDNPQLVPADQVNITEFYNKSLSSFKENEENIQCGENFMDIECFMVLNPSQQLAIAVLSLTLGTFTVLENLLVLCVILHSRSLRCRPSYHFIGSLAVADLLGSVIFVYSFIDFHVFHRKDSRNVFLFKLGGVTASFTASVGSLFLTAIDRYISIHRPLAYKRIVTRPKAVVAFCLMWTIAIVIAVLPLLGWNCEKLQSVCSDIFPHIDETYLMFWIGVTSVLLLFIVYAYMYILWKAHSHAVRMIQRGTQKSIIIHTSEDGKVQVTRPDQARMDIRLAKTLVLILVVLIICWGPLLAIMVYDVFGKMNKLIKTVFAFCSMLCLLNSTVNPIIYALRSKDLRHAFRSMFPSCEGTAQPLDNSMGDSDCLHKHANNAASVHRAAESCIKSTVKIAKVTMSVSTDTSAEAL
T2 sequence (P34972 whole entry): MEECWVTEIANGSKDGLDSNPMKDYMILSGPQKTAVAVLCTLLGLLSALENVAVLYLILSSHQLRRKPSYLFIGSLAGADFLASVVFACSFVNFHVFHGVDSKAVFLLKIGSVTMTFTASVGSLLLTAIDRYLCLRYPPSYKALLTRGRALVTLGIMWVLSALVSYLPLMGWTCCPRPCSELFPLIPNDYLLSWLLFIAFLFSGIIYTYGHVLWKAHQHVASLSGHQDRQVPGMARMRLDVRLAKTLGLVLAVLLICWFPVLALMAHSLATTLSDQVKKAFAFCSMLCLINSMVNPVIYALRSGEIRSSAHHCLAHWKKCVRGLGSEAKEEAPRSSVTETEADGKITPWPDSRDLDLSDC

Compound	pIC50 (human CB1 receptor)	inhibition at 0.2 µM (human CB1 receptor) [%]	inhibition at 0.2 µM (human CB2 receptor) [%]
Cc1c(C(=O)N[C@@H](C)c2ccccn2)nn(-c2ccc(Cl)cc2Cl)c1-c1ccc(Cl)s1 [Cpd 1, 5-(5-chloro-thiophen-2-yl)-1-(2,4-dichloro-phenyl)-4-methyl-1H-pyrazole-3-carboxylic acid [(1S)-1-pyridin-2-yl-ethyl]-amide]	7.42	–	–
Cc1c(C(=O)NN2CCCCC2)nn(-c2ccc(Cl)cc2Cl)c1-c1ccc(Cl)s1 [Cpd 2, 5-(5-chloro-thiophen-2-yl)-1-(2,4-dichloro-phenyl)-4-methyl-1H-pyrazole-3-carboxylic acid piperidin-1-ylamide]	7.40	–	–
Cc1c(C(=O)N[C@@H](C)c2ccccc2)nn(-c2ccc(Cl)cc2Cl)c1-c1ccc(Cl)s1 [Cpd 3, 5-(5-chloro-thiophen-2-yl)-1-(2,4-dichloro-phenyl)-4-methyl-1H-pyrazole-3-carboxylic acid [(1S)-1-phenyl-ethyl]-amide]	7.46	–	–
Cc1c(C(=O)NN2CCC(O)CC2)nn(-c2ccc(Cl)cc2Cl)c1-c1ccc(Cl)s1 [Cpd 4, 5-(5-chloro-thiophen-2-yl)-1-(2,4-dichloro-phenyl)-4-methyl-1H-pyrazole-3-carboxylic acid (4-hydroxy-piperidin-1-yl)-amide]	–	27	11
Cc1c(C(=O)N[C@H](C)C2CCCCC2)nn(-c2ccc(Cl)cc2Cl)c1-c1cccs1 [Cpd 5, 1-(2,4-dichloro-phenyl)-4-methyl-5-thiophen-2-yl-1H-pyrazole-3-carboxylic acid [(1R)-1-cyclohexyl-ethyl]-amide]	–	43	15
Cc1c(C(=O)N[C@H](C)c2ccccc2)nn(-c2ccc(Cl)cc2Cl)c1-c1cccs1 [Cpd 6, 1-(2,4-dichloro-phenyl)-4-methyl-5-thiophen-2-yl-1H-pyrazole-3-carboxylic acid [(1R)-1-phenyl-ethyl]-amide]	–	57	8
Cc1c(C(=O)N[C@@H](C)c2ccccc2)nn(-c2ccc(Cl)cc2Cl)c1-c1cccs1 [Cpd 7, 1-(2,4-dichloro-phenyl)-4-methyl-5-thiophen-2-yl-1H-pyrazole-3-carboxylic acid [(1S)-1-phenyl-ethyl]-amide]	–	28	0
Cc1c(C(=O)N[C@@H](C)C2CCCCC2)nn(-c2ccc(Cl)cc2Cl)c1-c1cccs1 [Cpd 8, 1-(2,4-dichloro-phenyl)-4-methyl-5-thiophen-2-yl-1H-pyrazole-3-carboxylic acid [(1S)-1-cyclohexyl-ethyl]-amide]	–	34	1
Cc1c(C(=O)N[C@@H](C)c2ccccn2)nn(-c2ccc(Cl)cc2Cl)c1-c1cccs1 [Cpd 9, 1-(2,4-dichloro-phenyl)-4-methyl-5-thiophen-2-yl-1H-pyrazole-3-carboxylic acid [(1S)-1-pyridin-2-yl-ethyl]-amide]	–	25	8
Cc1c(C(=O)N[C@@H](C)c2ccccc2)nn(-c2ccc(Cl)cc2Cl)c1-c1ccc(I)s1 [Cpd 36, 1-(2,4-dichloro-phenyl)-5-(5-iodo-thiophen-2-yl)-4-methyl-1H-pyrazole-3-carboxylic acid [(1S)-1-phenyl-ethyl]-amide]	7.77	–	–
Cc1c(C(=O)N[C@@H](C)c2ccccn2)nn(-c2ccc(Cl)cc2Cl)c1-c1ccc(I)s1 [Cpd 37, 1-(2,4-dichloro-phenyl)-5-(5-iodo-thiophen-2-yl)-4-methyl-1H-pyrazole-3-carboxylic acid [(1S)-1-pyridin-2-yl-ethyl]-amide]	7.51	–	–
Cc1c(C(=O)N[C@H](C)c2ccccc2)nn(-c2ccc(Cl)cc2Cl)c1-c1ccc(I)s1 [Cpd 38, 1-(2,4-dichloro-phenyl)-5-(5-iodo-thiophen-2-yl)-4-methyl-1H-pyrazole-3-carboxylic acid [(1R)-1-phenyl-ethyl]-amide]	7.64	–	–
Cc1c(C(=O)N[C@@H](C)C2CCCCC2)nn(-c2ccc(Cl)cc2Cl)c1-c1ccc(I)s1 [Cpd 39, 1-(2,4-dichloro-phenyl)-5-(5-iodo-thiophen-2-yl)-4-methyl-1H-pyrazole-3-carboxylic acid [(1S)-1-cyclohexyl-ethyl]-amide]	7.74	–	–
